This is an account of results in US20110098492A1, “CLEANING COMPOSITIONS CONTAINING MID-RANGE ALKOXYLATES” (priority 2008, published 2011).

The test system of one data set is Sicklepod. Put plainly: Greenhouse herbicide adjuvant efficacy with glyphosate. The data set is classed as in vivo. As to conditions: adjuvant 0.25% v/v in spray, visual injury at 18 DAA. As to the method:
Efficacy of Examples 7 and 8 as adjuvants in formulated herbicides is compared to commercially available herbicide packages. Greenhouse field testing is completed. A 480 g ae/L (acid equivalent per liter) formulation of glyphosate isopropylamine with no adjuvants is added to spray vials. These aliquots are diluted to a final volume of 60 ml with tap water, and appropriate amounts of adjuvants are added to the spray solution. The Examples 7 and 8 series are tested at 0.25% v/v in the final spray solution. Treatment rates are: 200, 400, and 600 g ae/ha (“ha” means hectare) and each treatment is replicated three times. Treatments are applied with a tracksprayer. The sprayer utilizes an 8002E spray nozzle, spray pressure of 262 kPa pressure and speed of 2.2 mph to deliver 140 L/Ha. The nozzle height is 46 cm above the pots. Percent visual injury assessments are made at 18 DAA (days after application) on a scale of 0 to 100% as compared to the untreated control plants (where 0 is equal to no injury and 100 is equal to complete death of the plant). Results are shown in Table 10 as % Control of Sicklepod with Glyphosate compared to commercial herbicides.

A further data set deals with Desmondesmus subspicatus. As to the kind of experiment: Fresh water algal growth inhibition test (OECD 201). The data set is classed as cell-based. Conditions: growth rate. An excerpt:
Organization for Economic Cooperation and Development (OECD): OECD Guidelines for the Testing of Chemicals, “Freshwater Alga and Cyanobacteria, Growth Inhibition Test”, Procedure 201, adopted 23 Mar. 2006; European Economic Community (EEC): […] OECD Guidelines for the Testing of Chemicals, “Freshwater Alga and Cyanobacteria, Growth Inhibition Test”, Procedure 201, adopted 23 Mar. 2006; European Economic Community (EEC): […]

The test system of another data set is Daphna magna. As to the kind of experiment: 48-hour acute toxicity to Daphnia. The data set is classed as in vivo. The text has this:
The study procedures and test methods were based on the recommendations of the following guidelines: […]

Data set [1] is described as follows: Cleaning of cross-linked triglycerides (Gardner scrubber, soiled vinyl tile). Details: key to Arbitrary Gray Value: mean gray value of tile image (ImageJ). Conditions: 120 back-and-forth strokes, higher = better cleaning. On the procedure: Test panels coated with mixtures of triglycerides and cross-linked triglycerides were prepared and evaluated using the following procedure. Cobalt Naphthenate was used as a catalyst to accelerate the oxidation of vegetable oil to give a hard varnish. Carbon black is added to the varnish to enable easy visual comparison of the ability to clean the cross-linked triglyceride from the surface.
Substrate Panels: White Vinyl Floor Tile: Tarket Corporation Azrock™ VS304-3 (6913) cut to 4¼×4¼ inch (to fit the Gardner Linear Motion Scrubber).
Soil Formulation: 100 grams Canola Oil (Food Grade, 100%, Kroger Co. Cincinnati, Ohio 45202); 2 grams Acetylene Carbon Black (Cat #39724, Alfa Aesar; Surface area=74 sq m/g); 20 grams drying agent: Cobalt Naphthenate Solution (Aldrich Cat #54,457-4, CAS #61789-51-3) (Comes as a 6% solution in petroleum solvent); Oven: Convection oven set at 160° F.
Scrubbing Tester: Gardco washability & Wear Tester; Linear Motion Test Equipment; Model D12-V Cat #WA-2164 (Paul N. Gardner Company, Inc. 316 N.E. First Street, Pompano, Beach, Fla. 33060.
Sponges: “Do-It” Cellulose Sponge, 1⅝ in thick, cut to 3″×4″. Manufactured by Bloch/New England for HWI, Fort Wayne, Ind. 46801;
Paint Brushes: Economy Chip Brush 1 Inch. www.lgsourcing.com Model #0106; Item #103407 obtained from Lowes, Inc. L. G. Sourcing, Inc. P.O. Box 1535 North Wilkseboro, N.C. 28659
Reflectance Meter: HunterLab ColorQuest XE
Prepare a stock solution by mixing 98 grams of canola oil (food grade) with 2.0 g acetylene-based carbon black (Cat #39724, Alfa Aesar; Surface area=74 sq m/g). Mix with a disperser at 2000 rpm for 15 min. (We used a Caframo Model BDC 3030 with a 0.50 dispersing blade).
Add 20.0 grams Cobalt Naphthenate Solution and mix well (by hand, using a glass stir rod).
Place 1.6 grams soil per 4×4 inch tile.
Paint to a thin film using a clean 1-inch economy brush. Use several strokes to get to an even coating. Use a clean, dry brush for each application. (After the application, each brush can be cleaned with acetone, dried, and then re-used).
Place in a convection oven set at 160 F for 16 hours. We place the panels in an oven at 4:00 p.m, and then remove the panels at 8:00 a.m. the next morning. Let the panels cool for 1 hour.
Use the panels within 10 days
Place a panel in the Gardner Scrubber
[…] (We use 5.0 grams surfactant diluted to 500 mL water).
Prepare a sponge by rinsing several times in cold tap water. Completely squeeze out the sponge by hand.
After each test, rinse out the sponge 15-20 times (by repeated sorption and squeezing) until there is no noticeable surfactant solution left (usually indicated by a lack of foam).
Pour 500 mL of surfactant solution into a beaker
Place the sponge into the beaker—allowing it to soak up as much surfactant as possible.
Place the sponge into the Gardner Scrubber.
Pour the remaining liquid (approx 400 mL) over the test panel in the scrubber. There should be enough liquid to just cover the test panel.
Program the scrubber to perform 120 back-and-forth strokes (for a total of 240 linear strokes). We define each back-and-forth stroke as “1 stroke”
Remove the panel rinse with tap water
Clean the Gardner scrubber by rinsing with tap water.
Clean the sponge by squeezing it out under tap water 20-30 times until clean.
Remove excess water from the sponge by squeezing as much liquid out as possible.
After the panel is dry, either take pictures (for visual comparison of cleaning) or measure the reflectance using the Xyy mode of a Hunter Colorimeter. Alternatively, the mean gray value can be obtained by taking a picture of the tiles and processing computer image with ImageJ™ software, which is distributed freely by the National Institute of Health (nih.gov).

Data set [2] is described as follows: Cleaning of cross-linked petroleum grease (1-octadecene soil). Conditions: for Arbitrary Gray Value: 1% by weight in water, cross-linked 1-octadecene soil. The text has this: The same procedure used above for cross-linked triglycerides was used, except that 1-octadecene was used instead of Canola Oil.
The nature of data set [3]: Ross-Miles foam height test (ASTM D1173). The data set is classed as physicochemical. As to conditions: for Ross Miles Foam Height, millimeters, Initial: Initial (0 sec). As to the method:
A) Ross-Miles Foam Height Test: This test is carried out according to the protocol of ASTM […].

Data set [4] in a line: Surface tension and critical micelle concentration (Wilhelmy plate). The data set is classed as physicochemical. As to the method:
B) Surface Tension and Critical Micelle Concentration (CMC) Measurement. For this test the surface tension of a surfactant-water solution is measured while incrementally adding the surfactant to de-ionized water. Results are measured in terms of dyne/centimeters using a Wilhelmy plate. Results are recorded versus surfactant concentration. The Critical Micelle Concentration is the point at which an increase in surfactant concentration no longer results in a change in surface tension.

Data set [5] can be described thus: Gel range in water at 23 C. The data set is classed as physicochemical. More on the design: key: L = Liquid; G = Gel; TL = Thick Liquid. On the procedure: One way the industry expresses a tendency of a surfactant to cause gels is a “gel range.” A typical gel range describes a percentage of samples that form gels, out of a number of samples, each having increasing surfactant concentration. […] A sample forms a gel when it is non-pourable for at least five seconds at 23° centigrade (° C.) when its container is inverted 180° so the container's open spout or mouth faces down. For many applications, a surfactant ideally has no gel range.
D) Gel range: Ten surfactant solutions are made using 0%, 10%, 20%, 30%, 40%, 50%, 60%, 70%, 80%, 90% water. […] The test is run at 23 C.

A short description of data set [6]: Pour point test (ASTM D97). The data set is classed as physicochemical. On the procedure:
C) Pour Point Test: This test is carried out according to the protocol of ASTM Test D97.

The next data set in a line: Cloud point. The data set is classed as physicochemical.
A short description of data set [7]: Formula stability with LAS, sodium citrate and water. The data set is classed as physicochemical. More on the design: key to Formula stability: S = Stable; U = Unstable. An excerpt:
When mixed with dodecyl benzene sulfonic acid (sodium salt), and sodium citrate in water, the surfactants of the present invention show enhanced formula stability relative to conventional surfactants.

For data set [8] the following is noted: background statement on commercial surfactants; cited from earlier work.

Consider 2EH(PO)5(EO)9 [Example 8], for which the entries for the “% Control of Sicklepod with Glyphosate” value in the data set with Sicklepod (200 G/ha glyphosate), in the data set with Sicklepod (400 G/ha glyphosate) and in the data set on Sicklepod (600 G/ha glyphosate) were 31.7%, 73.3% and 75.0%, respectively. Also, in the data set on Desmondesmus subspicatus, the “Fresh Water algal growth inhibition test with Desmondesmus subspicatus ErC50/0-3” value is reported as 97.7 mg/L. For the same substance, the “48-hour Acute Toxicity to Daphna magna (EC50-50 hour)” value in the data set with Daphna magna is above 100 µg/mL. In addition, the “Arbitrary Gray Value” in [1] (1% by weight in water) was 128.

Take 2EH(PO)5.5(EO)8 [Example 3]: in [2], the “Arbitrary Gray Value” was 136. The “cleaning of cross-linked 1-octadecene / mineral oil (in words)” value in data set [2] (compared with Tergitol NP-9) is listed as “equivalent to Tergitol NP-9”. The “Ross Miles Foam Height, millimeters, 5 Minutes” value in data set [3] was found to be 0 millimeters. Further, the “Ross Miles Foam Height, millimeters, Initial” value in data set [3] amounted to 45 millimeters. The “Surface Tension” value in [4] (0.1 wt % in water) is reported as 31 dyne/centimeters. In [4] (in de-ionized water), this substance registered a Critical Micelle Concentration of 1750 ppm. In addition, the “Gel Range, Percent Surfactant in Water at 23 C.” value (“Gel Range, Percent Surfactant” for short) in data set [5] (10% surfactant in water), in [5] (20% surfactant in water), in data set [5] (30% surfactant in water), in [5] (40% surfactant in water), in [5] (50% surfactant in water) and in data set [5] (60% surfactant in water) was “L” in each case. For the same substance, the “Gel Range, Percent Surfactant” value in data set [5] (70% surfactant in water) was “L”; in data set [5] (80% surfactant in water), “TL”; in [5] (90% surfactant in water), “L”. The “Pour Point” value in data set [6] is recorded as 44 ° F.

In the data set “Cloud point”, C9(BO)1(EO)7 [Example 9] came in with a cloud point of 53.9 C. Moreover, in the data set with Desmondesmus subspicatus, the “Fresh Water algal growth inhibition test with Desmondesmus subspicatus ErC50/0-3” value is recorded as 21 mg/L. In the data set on Daphna magna, the “48-hour Acute Toxicity to Daphna magna (EC50-50 hour)” value worked out at 6.2 µg/mL. Also, in [1] (1% by weight in water), the “Arbitrary Gray Value” is 121.

“nonylphenoxy (polyoxyethylene-9) [NP-9, reference compound]”: the “Arbitrary Gray Value” worked out at 95 in data set [2], 108 in data set [1] (0.5% by weight in water) and 177 in data set [1] (1% by weight in water). Besides, the Formula stability result in data set [7] (15% LAS/0% Na Cit in water), in data set [7] (15% LAS/1% Na Cit in water), in data set [7] (15% LAS/2% Na Cit in water) and in [7] (15% LAS/4% Na Cit in water) was “U” each time. The “Ross Miles Foam Height, millimeters, 5 Minutes” value in data set [3] is listed as 35 millimeters. Besides, in data set [3], the “Ross Miles Foam Height, millimeters, Initial” value amounted to 145 millimeters. Besides, the “Gel Range, Percent Surfactant” value in data set [5] (10% surfactant in water) is “L”; in data set [5] (20% surfactant in water) it was “L”; in data set [5] (30% surfactant in water), “L”; in data set [5] (40% surfactant in water) it was “L”; in [5] (50% surfactant in water) it was “L”; in [5] (60% surfactant in water), “G”. Moreover, the “Gel Range, Percent Surfactant” value in data set [5] (70% surfactant in water) is on record as “G”; in data set [5] (80% surfactant in water), “G”; in [5] (90% surfactant in water), “L”. The “Pour Point” value in data set [6] is 30 ° F. In addition, the “gel formation / gel range when mixed with water (in words)” value in data set [8] is “forms resilient, slow-dissolving gels”.
